Results from ChEMBL document CHEMBL1201862, “PubChem BioAssay data set” (2004).
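Where inhibition never reached the appropriate level, the endpoint shown equals the highest concentration tested. Otherwise, values were interpolated linearly from a five-concentration, 48-hour dose response in 96-well plates. The concentration for 50% growth inhibition is given as GI50.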 Activity calls are given as the source filed them. No stated cut-off is given here; in the data, active = GI50 up to about 1.1 µM and inactive = higher.

Columns and labels:
Assay in all cases: growth of human tumour cells (NCI), 48 h
COLO 205 = system: COLO 205
EKVX = system: EKVX
OVCAR-8 = system: OVCAR-8
OVCAR-5 = system: OVCAR-5
SK-MEL-2 = system: SK-MEL-2
M14 = system: M14
SK-MEL-5 = system: SK-MEL-5
HL-60 = system: HL-60
SF-268 = system: SF-268
LOX IMVI = system: LOX IMVI
NCI-H522 = system: NCI-H522
Hs-578T = system: Hs-578T
HCC 2998 = system: HCC 2998
T47D = system: T47D
DU-145 = system: DU-145
Malme-3M = system: Malme-3M
U-251 = system: U-251
NCI/ADR-RES = system: NCI/ADR-RES
MDA-MB-231 = system: MDA-MB-231
SF-539 = system: SF-539

Measured: GI50

Cc1nn(C(=O)c2ccc(Cl)cc2)c2c1C(c1ccccc1)SC(=N)N2 (stereo not given)
inactive: COLO 205 > 10 µM | EKVX > 10 µM | OVCAR-8 > 10 µM | OVCAR-5 > 10 µM | SK-MEL-2 > 10 µM | M14 > 10 µM | SK-MEL-5 > 10 µM | HL-60 > 10 µM | SF-268 > 10 µM | LOX IMVI > 10 µM | NCI-H522 > 10 µM | Hs-578T > 10 µM | HCC 2998 > 10 µM | T47D > 10 µM | DU-145 > 10 µM | Malme-3M > 10 µM | U-251 > 10 µM | NCI/ADR-RES > 10 µM | MDA-MB-231 > 10 µM | SF-539 > 10 µM

COc1cccc(-c2nnc3c(-c4ccccc4)nc4ccccc4n23)c1
inactive: COLO 205 8.57 µM | EKVX 55.2 µM | OVCAR-8 45.2 µM | OVCAR-5 > 100 µM | SK-MEL-2 10.1 µM | M14 29.5 µM | SK-MEL-5 14 µM | HL-60 7.18 µM | SF-268 > 100 µM | LOX IMVI 63.5 µM | NCI-H522 3.37 µM | Hs-578T 57.9 µM | HCC 2998 8.49 µM | T47D 4.35 µM | DU-145 42.5 µM | Malme-3M 10.9 µM | U-251 21.8 µM | NCI/ADR-RES 14.4 µM | MDA-MB-231 24.5 µM | SF-539 65.8 µM

CC(C)(C)OC(=O)NCCCNC1(c2cc3ccccc3s2)CCCCC1
inactive: COLO 205 12.3 µM | EKVX 14 µM | OVCAR-8 17.2 µM | OVCAR-5 13.7 µM | SK-MEL-2 17.5 µM | M14 12 µM | SK-MEL-5 13.9 µM | HL-60 10.5 µM | SF-268 16.7 µM | LOX IMVI 16.8 µM | NCI-H522 14.2 µM | Hs-578T 19.4 µM | HCC 2998 3.56 µM | T47D 16.7 µM | DU-145 16.9 µM | Malme-3M 15.9 µM | U-251 21.3 µM | NCI/ADR-RES 15.2 µM | MDA-MB-231 17.6 µM | SF-539 18.4 µM

CO[C@@H]1[C@H](OC(=O)NC(=O)CCl)CC[C@]2(CO2)[C@H]1[C@@]1(C)O[C@@H]1CC=C(C)C [O-CHLOROACETYLCARBAMOYLFUMAGILLOL]
inactive: COLO 205 14.2 µM | EKVX 14.1 µM | OVCAR-8 15.8 µM | OVCAR-5 17.3 µM | SK-MEL-2 13.6 µM | M14 5.51 µM | SK-MEL-5 8.83 µM | HL-60 2.54 µM | SF-268 13.6 µM | LOX IMVI 5.05 µM | NCI-H522 5.35 µM | Hs-578T 19.9 µM | HCC 2998 5.81 µM | T47D 12.6 µM | DU-145 12.2 µM | Malme-3M 5.97 µM | U-251 3.08 µM | NCI/ADR-RES 16 µM | MDA-MB-231 15.9 µM | SF-539 10.6 µM

Nc1ncnc2c1ncn2C1OC(CO)C2OC21 (stereo not given)
inactive: COLO 205 > 100 µM | EKVX > 100 µM | OVCAR-8 > 100 µM | OVCAR-5 > 100 µM | SK-MEL-2 > 100 µM | M14 > 10 µM | SK-MEL-5 > 100 µM | HL-60 > 100 µM | SF-268 > 100 µM | LOX IMVI > 100 µM | NCI-H522 > 100 µM | Hs-578T > 100 µM | HCC 2998 > 100 µM | T47D > 100 µM | DU-145 > 100 µM | Malme-3M > 10 µM | U-251 > 100 µM | NCI/ADR-RES > 10 µM | MDA-MB-231 > 100 µM | SF-539 > 100 µM

C=CCN(c1cc(OCc2ccccc2)c2[nH]cc(C)c2c1)S(C)(=O)=O
inactive: COLO 205 > 100 µM | EKVX 24.2 µM | OVCAR-8 61.9 µM | OVCAR-5 79.8 µM | SK-MEL-2 41.7 µM | M14 > 100 µM | SK-MEL-5 52.4 µM | HL-60 > 100 µM | SF-268 46.7 µM | LOX IMVI > 100 µM | NCI-H522 37 µM | Hs-578T 45.8 µM | HCC 2998 > 100 µM | T47D 18.8 µM | DU-145 40 µM | Malme-3M 27.5 µM | U-251 46.7 µM | NCI/ADR-RES 53.1 µM | MDA-MB-231 44.6 µM | SF-539 56.2 µM

O=C1CCC2(CC1CC[S+]([O-])c1ccccc1)OCCO2 (stereo not given)
inactive: COLO 205 > 100 µM | EKVX > 100 µM | OVCAR-8 > 100 µM | OVCAR-5 > 100 µM | SK-MEL-2 > 100 µM | M14 > 100 µM | SK-MEL-5 > 100 µM | HL-60 89.7 µM | SF-268 > 100 µM | LOX IMVI > 100 µM | NCI-H522 > 100 µM | Hs-578T > 100 µM | HCC 2998 > 100 µM | T47D > 100 µM | DU-145 > 100 µM | Malme-3M > 100 µM | U-251 > 100 µM | NCI/ADR-RES > 100 µM | MDA-MB-231 > 100 µM | SF-539 > 100 µM

O=C1c2c(ccc3c2CCC3)CC12Cc1ccccc1C2
inactive: COLO 205 16.6 µM | EKVX 22.5 µM | OVCAR-8 20.5 µM | OVCAR-5 30 µM | SK-MEL-2 21.4 µM | M14 19.8 µM | SK-MEL-5 10.9 µM | HL-60 10.4 µM | SF-268 33.7 µM | LOX IMVI 12.7 µM | NCI-H522 11.6 µM | Hs-578T 21.4 µM | HCC 2998 22 µM | T47D 28.2 µM | DU-145 17.7 µM | Malme-3M 18.9 µM | U-251 22.2 µM | NCI/ADR-RES 28.4 µM | MDA-MB-231 22.4 µM | SF-539 12.2 µM

Cc1ccc(C(=O)OC(C)C)cc1/N=N/N(C)C
inactive: COLO 205 > 100 µM | EKVX > 100 µM | OVCAR-8 > 100 µM | OVCAR-5 > 100 µM | SK-MEL-2 > 100 µM | M14 > 100 µM | SK-MEL-5 > 64.9 µM | HL-60 39.8 µM | SF-268 > 68.7 µM | LOX IMVI > 70 µM | NCI-H522 31.1 µM | Hs-578T > 100 µM | HCC 2998 > 100 µM | T47D 44.5 µM | DU-145 > 100 µM | Malme-3M > 100 µM | U-251 > 71.4 µM | NCI/ADR-RES 98.4 µM | MDA-MB-231 > 100 µM | SF-539 > 100 µM
